The supplement of paper PMC11061612

Legend:
Carboplatin = compound: C1CC(C1)(C(=O)[O-])C(=O)[O-].N.N.[Pt+2] [Carboplatin]; details: max 10 µM
In short: (§1)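 Viability was measured with CellTiter-Glo 2.0 luminescence after 72 hours of dosing at a final DMSO of typically 0.2%, and scaled between blank-well and DMSO-well means. Beforehand, cancer cell lines sat 24 hours at 37°C and 5% CO2 in 1536-well plates in 7.5 μl DMEM/F12 or RPMI with 10% FBS. A non-linear mixed effects model fitted two-parameter logistic curves to the dose responses. The single-agent IC50 comes from these fits.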

AZD5363 = compound: C1CN(CCC1(C(=O)N[C@@H](CCO)C2=CC=C(C=C2)Cl)N)C3=NC=NC4=C3C=CN4 [AZD5363]; details: max 10 µM
In short: as §1

AZD1775 = compound: C=CCn1c(=O)c2cnc(Nc3ccc(N4CCN(C)CC4)cc3)nc2n1-c1cccc(C(C)(C)O)n1 [AZD1775]; details: max 3 µM
In short: as §1

Trametinib = compound: CC(=O)Nc1cccc(-n2c(=O)n(C3CC3)c(=O)c3c(Nc4ccc(I)cc4F)n(C)c(=O)c(C)c32)c1 [Trametinib]; details: max 1 µM
In short: as §1

Paclitaxel = compound: CC(=O)O[C@H]1C(=O)[C@@]2(C)[C@H]([C@H](OC(=O)c3ccccc3)[C@]3(O)C[C@H](OC(=O)[C@H](O)[C@@H](NC(=O)c4ccccc4)c4ccccc4)C(C)=C1C3(C)C)[C@]1(OC(C)=O)CO[C@@H]1C[C@@H]2O [Paclitaxel]; details: max 3 µM
In short: as §1

Palbociclib = compound: CC(=O)c1c(C)c2cnc(Nc3ccc(N4CCNCC4)cn3)nc2n(C2CCCC2)c1=O [Palbociclib]; details: max 10 µM
In short: as §1

AZD1390 = compound: CC(C)n1c(=O)n(C)c2cnc3cc(F)c(-c4ccc(OCCCN5CCCCC5)nc4)cc3c21 [AZD1390]; details: max 0.3 µM
In short: as §1

Venetoclax = compound: CC1(C)CCC(CN2CCN(c3ccc(C(=O)NS(=O)(=O)c4ccc(NCC5CCOCC5)c([N+](=O)[O-])c4)c(Oc4cnc5[nH]ccc5c4)c3)CC2)=C(c2ccc(Cl)cc2)C1 [Venetoclax]; details: max 1 µM
In short: as §1

Dasatinib = compound: CC1=C(C(=CC=C1)Cl)NC(=O)C2=CN=C(S2)NC3=CC(=NC(=N3)C)N4CCN(CC4)CCO [Dasatinib]; details: max 2 µM
In short: as §1

SG3199 = compound: CC1=CN2[C@@H](C1)C=NC3=CC(=C(C=C3C2=O)OC)OCCCCCOC4=C(C=C5C(=C4)N=C[C@@H]6CC(=CN6C5=O)C)OC [SG3199]; details: max 0.001 µM
In short: as §1

AZD2811 = compound: CCN(CCO)CCCOc1ccc2c(Nc3cc(CC(=O)Nc4cccc(F)c4)[nH]n3)ncnc2c1 [AZD2811]; details: max 1 µM
In short: as §1

SN-38 = compound: CCc1c2c(nc3ccc(O)cc13)-c1cc3c(c(=O)n1C2)COC(=O)[C@]3(O)CC [SN-38]; details: max 0.3 µM
In short: as §1

AZD0156 = compound: CN(C)CCCOc1ccc(-c2ccc3ncc4c(c3c2)n(C2CCOCC2)c(=O)n4C)cn1 [AZD0156]; details: max 3 µM
In short: as §1

AZD4320 = compound: CN(CC[C@H](CSC1=CC=CC=C1)NC2=C(C=C(C=C2)S(=O)(=O)NC(=O)C3=CC=C(C=C3)N4CCC(CC4)[C@H](C5=CC=CC=C5C6=CC=C(C=C6)Cl)O)S(=O)(=O)C(F)(F)F)CCO [AZD4320]; details: max 1 µM
In short: as §1

Alisertib = compound: COc1cc(Nc2ncc3c(n2)-c2ccc(Cl)cc2C(c2c(F)cccc2OC)=NC3)ccc1C(=O)O [Alisertib]; details: max 10 µM
In short: as §1

Etoposide = compound: COc1cc([C@@H]2c3cc4c(cc3[C@@H](O[C@@H]3O[C@@H]5CO[C@@H](C)O[C@H]5[C@H](O)[C@H]3O)[C@H]3COC(=O)[C@H]23)OCO4)cc(OC)c1O [Etoposide]; details: max 10 µM
In short: as §1

Gefitinib = compound: COc1cc2ncnc(Nc3ccc(F)c(Cl)c3)c2cc1OCCCN1CCOCC1 [Gefitinib]; details: max 10 µM
In short: as §1

Prexasertib = compound: COc1cccc(OCCCN)c1-c1cc(Nc2cnc(C#N)cn2)n[nH]1 [Prexasertib]; details: max 1 µM
In short: as §1

Doxorubicin = compound: COc1cccc2c1C(=O)c1c(O)c3c(c(O)c1C2=O)C[C@@](O)(C(=O)CO)C[C@@H]3O[C@H]1C[C@H](N)[C@H](O)[C@H](C)O1 [Doxorubicin]; details: max 1 µM
In short: as §1

AZD5153 = compound: COc1nnc2ccc(N3CCC(c4ccc(OCCN5CCN(C)C(=O)[C@H]5C)cc4)CC3)nn12 [AZD5153]; details: max 1 µM
In short: as §1

Lapatinib = compound: CS(=O)(=O)CCNCc1ccc(-c2ccc3ncnc(Nc4ccc(OCc5cccc(F)c5)c(Cl)c4)c3c2)o1 [Lapatinib]; details: max 10 µM
In short: as §1

AZD8186 = compound: C[C@@H](Nc1cc(F)cc(F)c1)c1cc(C(=O)N(C)C)cc2c(=O)cc(N3CCOCC3)oc12 [AZD8186]; details: max 10 µM
In short: as §1

Crizotinib = compound: C[C@@H](Oc1cc(-c2cnn(C3CCNCC3)c2)cnc1N)c1c(Cl)ccc(F)c1Cl [Crizotinib]; details: max 10 µM
In short: as §1

Savolitinib = compound: C[C@@H](c1ccc2nccn2c1)n1nnc2ncc(-c3cnn(C)c3)nc21 [Savolitinib]; details: max 1 µM
In short: as §1

AZD6738 = compound: C[C@@H]1COCCN1C2=NC(=NC(=C2)C3(CC3)[S@](=N)(=O)C)C4=C5C=CNC5=NC=C4 [AZD6738]; details: max 10 µM
In short: as §1

AZD5991 = compound: Cc1c2c(nn1C)CSCc1cc(n(C)n1)CSc1cc(c3ccccc3c1)OCCCc1c(C(=O)O)n(C)c3c-2c(Cl)ccc13 [AZD5991]; details: max 1 µM
In short: as §1

AZD7648 = compound: Cc1cc2ncnn2cc1Nc1ncc2c(n1)n(C1CCOCC1)c(=O)n2C [AZD7648]; details: max 10 µM
In short: as §1

Taselisib = compound: Cc1nc(-c2cn3c(n2)-c2ccc(-c4cnn(C(C)(C)C(N)=O)c4)cc2OCC3)n(C(C)C)n1 [Taselisib]; details: max 10 µM
In short: as §1

Selumetinib = compound: Cn1cnc2c(F)c(Nc3ccc(Br)cc3Cl)c(C(=O)NOCCO)cc21 [Selumetinib]; details: max 10 µM
In short: as §1

SRA737 = compound: N#Cc1cnc(Nc2cc(NC[C@H]3CNCCO3)c(C(F)(F)F)cn2)cn1 [SRA737]; details: max 10 µM
In short: as §1

MK-2206 = compound: NC1(c2ccc(-c3nc4ccn5c(=O)[nH]nc5c4cc3-c3ccccc3)cc2)CCC1 [MK-2206]; details: max 10 µM
In short: as §1

Gemcitabine = compound: Nc1ccn([C@@H]2O[C@H](CO)[C@@H](O)C2(F)F)c(=O)n1 [Gemcitabine]; details: max 0.3 µM
In short: as §1

[1] = compound: O=C(Nc1ccc2[nH]nc(-c3ccncc3)c2c1)[C@@H]1CCN(CC(=O)N2CCN(c3ccc(-c4ncccn4)cc3)CC2)C1; details: max 5 µM
In short: as §1

Olaparib = compound: O=C(c1cc(Cc2n[nH]c(=O)c3ccccc23)ccc1F)N1CCN(C(=O)C2CC2)CC1 [Olaparib]; details: max 10 µM
In short: as §1

5-Fluorouracil = compound: O=c1[nH]cc(F)c(=O)[nH]1 [5-Fluorouracil]; details: max 20 µM
In short: as §1

Row | Cell Line | IC50, cell viability 72 h (Carboplatin) [nM] | IC50, cell viability 72 h (AZD5363) [nM] | IC50, cell viability 72 h (AZD1775) [nM] | IC50, cell viability 72 h (Trametinib) [nM] | IC50, cell viability 72 h (Paclitaxel) [nM] | IC50, cell viability 72 h (Palbociclib) [nM] | IC50, cell viability 72 h (AZD1390) [nM] | IC50, cell viability 72 h (Venetoclax) [nM] | IC50, cell viability 72 h (Dasatinib) [nM] | IC50, cell viability 72 h (SG3199) [nM] | IC50, cell viability 72 h (AZD2811) [nM] | IC50, cell viability 72 h (SN-38) [nM] | IC50, cell viability 72 h (AZD0156) [nM] | IC50, cell viability 72 h (AZD4320) [nM] | IC50, cell viability 72 h (Alisertib) [nM] | IC50, cell viability 72 h (Etoposide) [nM] | IC50, cell viability 72 h (Gefitinib) [nM] | IC50, cell viability 72 h (Prexasertib) [nM] | IC50, cell viability 72 h (Doxorubicin) [nM] | IC50, cell viability 72 h (AZD5153) [nM] | IC50, cell viability 72 h (Lapatinib) [nM] | IC50, cell viability 72 h (AZD8186) [nM] | IC50, cell viability 72 h (Crizotinib) [nM] | IC50, cell viability 72 h (Savolitinib) [nM] | IC50, cell viability 72 h (AZD6738) [nM] | IC50, cell viability 72 h (AZD5991) [nM] | IC50, cell viability 72 h (AZD7648) [nM] | IC50, cell viability 72 h (Taselisib) [nM] | IC50, cell viability 72 h (Selumetinib) [nM] | IC50, cell viability 72 h (SRA737) [nM] | IC50, cell viability 72 h (MK-2206) [nM] | IC50, cell viability 72 h (Gemcitabine) [nM] | IC50, cell viability 72 h [1] [nM] | IC50, cell viability 72 h (Olaparib) [nM] | IC50, cell viability 72 h (5-Fluorouracil) [nM]
1 | A4-Fuk (B-Lymphoblastic Leukemia) | > 10000 | 2060 | 110 | 282 | 3.17 | 4240 | > 300 | 966 | > 2000 | > 1 | > 1000 | 17.4 | 2420 | > 1000 | 207 | 321 | > 10000 | 7.45 | 237 | 29.4 | 7570 | 5860 | 2210 | > 1000 | 2210 | 77.6 | 5150 | 234 | > 10000 | 844 | 2770 | 6.82 | 771 | > 10000 | 3920
2 | SKN (Other Solid Carcinomas) | > 10000 | 5640 | > 3000 | > 1000 | 95.3 | > 10000 | > 300 | > 1000 | 179 | > 1 | > 1000 | > 300 | > 3000 | > 1000 | > 10000 | > 10000 | > 10000 | > 1000 | > 1000 | 446 | > 10000 | 1840 | > 10000 | > 1000 | > 10000 | > 1000 | > 10000 | 2870 | > 10000 | > 10000 | > 10000 | > 300 | > 5000 | > 10000 | > 20000
3 | DU-145 (Prostate Carcinoma) | > 10000 | > 10000 | > 3000 | > 1000 | 187 | > 10000 | > 300 | > 1000 | > 2000 | > 1 | > 1000 | 47.3 | > 3000 | > 1000 | > 10000 | > 10000 | > 10000 | 262 | > 1000 | > 1000 | > 10000 | > 10000 | > 10000 | > 1000 | > 10000 | > 1000 | > 10000 | > 10000 | > 10000 | > 10000 | > 10000 | > 300 | > 5000 | > 10000 | > 20000
